The values below come from paper PMC6943434, “Novel Homo-Bivalent and Polyvalent Compounds Based on Ligustrazine and Heterocyclic Ring as Anticancer Agents” (Molecules, 2019).

Test [1] deals with A549 (epithelial cancer cell line). The experiment in a line: MTT cell viability assay, A549. The test is classed as cell-based. Particulars: Homo sapiens, 48 h, read-out: Antiproliferative Activity IC50 ± SEM, A549. As for the experimental part:
(§1) The tested cells were obtained from Shanghai Institute of Biochemistry and Cell Biology of the Chinese Academy of Sciences (Shanghai, China). HeLa and Hep G2 cell lines were cultured in Dulbecco’s modified Eagle’s medium (DMEM; gibco, Life Technologies, Carlsbad, CA, USA) supplemented with 10% fetal bovine serum (FBS; Biological Industries), 100 U/mL penicillin-streptomycin (PS; gibco, Life Technologies, Carlsbad, CA, USA). MCF-7 and A549 cell lines were maintained in RPMI-1640 media (gibco, Life Technologies, Carlsbad, CA, USA) supplemented with 10% FBS and 100 U/mL PS. FaDu cell lines were cultured in minimum essential medium (MEM; Gibco, Life Technologies, Carlsbad, CA, USA) supplemented with 10% FBS and 100 U/mL PS. MCF 10A cell lines were maintained in Mammary MEGM kit (Lonza/Clonetics) supplemented with 100 ng/mL cholera toxin (Sigma, Shanghai, China). Cell lines were grown at 37 °C in a humidified atmosphere of 5% CO2.
(§2) The growth-inhibitory effects against HeLa, Hep G2, MCF-7, FaDu, and A549 cancer cells and normal cell lines MCF 10A were determined by MTT assay. […] Cells were seeded in 96 well plates at a density of 1 × 10^4 cells per well and incubated for 24 h at 37 °C in a humidified atmosphere of 5% CO2. The cells were then incubated with various concentrations of drugs for 48 h in a 5% CO2 incubator at 37 °C. After treatment with 1 mg/mL 3-(4,5-dimethylthiazol-2-yl)-2,5-diphenyltetrazolium bromide (MTT) solution for 4 h, the formazan crystals were dissolved in 100 µL DMSO in each well. Plates were read on a microplate reader (Thermo Varioskan Flash 3001) at 490 nm. The experiment was performed in triplicate. The inhibitory concentration at 50% (IC50) was calculated based on concentration-inhibition relationships via regression using SPSS software (Version 17.0).

Test [2] concerns MCF-7 (breast cancer cell line). The experiment in a line: MTT cell viability assay, MCF-7. The test is classed as cell-based. Particulars: Homo sapiens, MCF7, 48 h, read-out: Antiproliferative Activity IC50 ± SEM, MCF-7. As for the experimental part:
as §1, §2
A general note: Tetrazolium assays rely on reduction of a dye to a coloured formazan, in cell work by metabolically active cells.

Test [3] concerns MCF 10A (normal mammary epithelial cell). The test is described as follows: MTT cell viability assay, MCF 10A. The format is cell-based. The conditions noted are these: Homo sapiens, 48 h, normal cells, read-out: Antiproliferative Activity IC50 ± SEM, MCF 10A.
The test system of test [4] is FaDu (head and neck squamous carcinoma cell line). The experiment in a line: MTT cell viability assay, FaDu. The format is cell-based, human. As to the method: as §1, §2
Test [5] has as its system HeLa, Hep G2, MCF-7, FaDu, A549, MCF 10A. The experiment in a line: MTT cell viability assay, summary over the cell line panel. Particulars: Homo sapiens, 48 h, span over the cell lines, read-out: IC50 range over tested cell lines. The test is classed as cell-based, human. As to the method:
as §1, §2

Test [6] relates to Hep G2 (hepatocarcinoma cell line). The test is described as follows: MTT cell viability assay, Hep G2. The test is classed as cell-based. The conditions noted are these: Homo sapiens, HepG2, 48 h, read-out: Antiproliferative Activity IC50 ± SEM, Hep G2. As for the experimental part: as §1, §2
Test [7] has as its system HeLa (cervical cancer cell line). The experiment in a line: MTT cell viability assay, HeLa. The format is cell-based. Particulars: Homo sapiens, 48 h, read-out: Antiproliferative Activity IC50 ± SEM, HeLa. As to the method:
as §1, §2

Where [8] appears, read: Homo sapiens, FaDu, 48 h, MTT, 48 h; read-out: Antiproliferative Activity IC50 ± SEM, FaDu.
[9] abbreviates: SI = IC50 (MCF 10A)/IC50 (FaDu).

Structures are written as SMILES. Read-outs that look alike come from different tables or passages of the source.

A word on the IC50: it is the concentration that gives 50% inhibition. For the molecule `Cc1nc(C)c(CN(CCCCCCCCCCN(Cc2nc(C)c(C)nc2C)Cc2nc(C)c(C)nc2C)Cc2nc(C)c(C)nc2C)nc1C` [Compound 6f, N^1,N^1,N^10,N^10-Tetrakis((3,5,6-Trimethylpyrazin-2-yl)Methyl)Decane-1,10-Diamine], the IC50 was 20.1 ± 0.41 µM in test [1]; 20.83 ± 0.14 µM in test [2]; 13 ± 0.55 µM in test [3]; 10.9 ± 0.12 µM in test [4] (setting [8]); 6.57 to 20.8 µM in test [5]; 10.7 ± 0.22 µM in test [6]. Also, the IC50 in test [7] stood at 10.2 ± 0.55 µM. The “SI: selectivity index” value in test [4] (setting [9]) worked out at 1.19.

Turning to `COc1cc(C(=O)NCCCCCCCCCCNC(=O)c2cc(OC)c(OC)c(OC)c2)cc(OC)c1OC` [Compound 34e, N,N′-(Decane-1,10-Diyl)Bis(3,4,5-Trimethoxybenzamide)], the IC50 is > 20 µM in test [1]; > 20 µM in test [2]; > 20 µM in test [3]; 5.85 ± 0.408 µM in test [4] (setting [8]); > 20 µM in test [6]; > 20 µM in test [7]. In addition, the “SI: selectivity index” value in test [4] (setting [9]) is recorded as >3.42.

Turning to `COc1ccc(C(=O)NCCCCCCCCCCNC(=O)c2ccc(OC)c(OC)c2OC)c(OC)c1OC` [Compound 35e, N,N′-(Decane-1,10-Diyl)Bis(2,3,4-Trimethoxybenzamide)], the 50% inhibitory concentration (IC50) in test [1], in test [2], in test [3], in test [4] (setting [8]), in test [6] and in test [7] was > 20 µM each time.

For `Cc1nc(C)c(C(=O)NCCCCCCNC(=O)c2nc(C)c(C)nc2C)nc1C` [Compound 8c, N,N′-(Hexane-1,6-Diyl)Bis(3,5,6-Trimethylpyrazine-2-Carboxamide)], the IC50 is > 100 µM in test [1]; > 100 µM in test [2]; 46.6 ± 0.65 µM in test [3]; 80.4 ± 1.36 µM in test [4] (setting [8]); > 100 µM in test [6]; > 100 µM in test [7].

Regarding `O=C(NCCCCCCCCCCNC(=O)c1ccco1)c1ccco1` [Compound 14e, N,N′-(Decane-1,10-Diyl)Bis(Furan-2-Carboxamide)], the concentration for half-maximal inhibition (IC50) in test [1] is 44.37 ± 0.29 µM; in test [2] it was > 100 µM; in test [3], 19.8 ± 1.41 µM; in test [4] (setting [8]), 6.33 ± 0.65 µM; in test [6], 97.8 ± 1.55 µM; in test [7], > 100 µM. Also, the “SI: selectivity index” value in test [4] (setting [9]) was determined as 3.13.

Consider `Cc1nc(C)c(CN(CCCCN(Cc2nc(C)c(C)nc2C)Cc2nc(C)c(C)nc2C)Cc2nc(C)c(C)nc2C)nc1C` [Compound 6c, N^1,N^1,N^4,N^4-Tetrakis((3,5,6-Trimethylpyrazin-2-yl)Methyl)Butane-1,4-Diamine], for which the IC50 in test [1], in test [2], in test [3], in test [4] (setting [8]), in test [6] and in test [7] was > 100 µM each time.

Consider `O=C(NCCCCCCCCCCNC(=O)c1cccnc1)c1cccnc1` [Compound 10e, N,N′-(Decane-1,10-Diyl)Dinicotinamide], for which the IC50 is 2.94 ± 0.25 µM in test [1]; > 100 µM in test [2]; 38.6 ± 2.48 µM in test [3]; > 100 µM in test [6]; > 100 µM in test [7]. The “SI: selectivity index” value in test [4] (setting [9]) was determined as 154.40.

As for `Cc1nc(C)c(CN2CCN(Cc3nc(C)c(C)nc3C)CC2)nc1C` [Compound 6h, 1,4-Bis((3,5,6-Trimethylpyrazin-2-yl)Methyl)Piperazine], the concentration for half-maximal inhibition (IC50) in test [1], in test [2], in test [3], in test [4] (setting [8]), in test [6] and in test [7] was > 100 µM in each case.

Turning to `O=C(/C=C/c1ccccc1)OCCOCCOCCOCCOC(=O)/C=C/c1ccccc1` [Compound 9m, ((Oxybis(Ethane-2,1-Diyl))Bis(Oxy))Bis(Ethane-2,1-Diyl) (2E,2′E)-bis(3-Phenylacrylate)], the half-inhibitory concentration (IC50) in test [1], in test [2], in test [3], in test [4] (setting [8]), in test [6] and in test [7] was > 20 µM in each case.

Turning to `COc1cccc2c1C(=O)c1c(O)c3c(c(O)c1C2=O)C[C@@](O)(C(=O)CO)C[C@@H]3O[C@H]1C[C@H](N)[C@H](O)[C@H](C)O1` [DOX, doxorubicin, reference compound], the IC50 in test [1] is > 100 µM; in test [2], 6 ± 0.07 µM; in test [3], 0.55 ± 0.03 µM; in test [4] (Homo sapiens, FaDu; MTT, 48 h; read-out: Antiproliferative Activity IC50 ± SEM, FaDu), 1.27 ± 0.13 µM; in test [6] it was 28 ± 1.09 µM; in test [7], 11.4 ± 0.48 µM.

As for `O=C(/C=C/c1ccccc1)NCCOCCOCCNC(=O)/C=C/c1ccccc1` [Compound 9j, (2E,2′E)-N,N′-((Ethane-1,2-Diylbis(Oxy))Bis(Ethane-2,1-Diyl))Bis(3-Phenylacrylamide)], the IC50 in test [1], in test [2], in test [3], in test [4] (setting [8]), in test [6] and in test [7] was > 20 µM in each case.

Take `O=C(/C=C/c1ccccc1)OCCCCCCCCCCOC(=O)/C=C/c1ccccc1` [Compound 9h, Decane-1,10-Diyl (2E,2′E)-Bis(3-Phenylacrylate)]: the IC50 in test [1], in test [2], in test [3], in test [4] (setting [8]), in test [6] and in test [7] was > 20 µM each time.

For `O=C(NCCCCCCCCCCNC(=O)c1cnc2ccccc2c1)c1cnc2ccccc2c1` [Compound 17e, N,N′-(Decane-1,10-Diyl)Bis(Quinoline-3-Carboxamide)], the 50% inhibitory concentration (IC50) in test [1], in test [2], in test [3], in test [6] and in test [7] was > 20 µM in each case. In addition, the “SI: selectivity index” value in test [4] (setting [9]) is >84.75.

As to `O=C(NCCCCCCCCCCNC(=O)c1ccccc1)c1ccccc1` [Compound 11e, N,N′-(Decane-1,10-Diyl)Dibenzamide], the half-inhibitory concentration (IC50) was 64.3 ± 3.46 µM in test [1]; > 100 µM in test [2]; 80.5 ± 7.6 µM in test [3]; < 1 µM in test [4] (setting [8]); 0.5 ± 0.06 µM in test [4] (MTT, 48 h; read-out: Antiproliferative Activity IC50 ± SEM, FaDu); > 100 µM in test [6]. Moreover, in test [7], the half-inhibitory concentration (IC50) is > 100 µM. In test [4] (setting [9]), the “SI: selectivity index” value worked out at 161.08.

Take `O=C(/C=C/c1ccccc1)OCCCCCCCCCCCCOC(=O)/C=C/c1ccccc1` [Compound 9i, Dodecane-1,12-Diyl (2E,2′E)-Bis(3-Phenylacrylate)]: the IC50 in test [1], in test [2], in test [3], in test [4] (setting [8]), in test [6] and in test [7] was > 20 µM each time.

Regarding `O=C(NCCCCCCCCCCNC(=O)c1cc2ccccc2oc1=O)c1cc2ccccc2oc1=O` [Compound 20e, N,N′-(Decane-1,10-Diyl)Bis(2-Oxo-2H-Chromene-3-Carboxamide)], the concentration for half-maximal inhibition (IC50) in test [1], in test [2], in test [3], in test [4] (setting [8]), in test [6] and in test [7] was > 20 µM throughout.

As to `COc1cc(/C=C/C(=O)NCCCCCCCCCCNC(=O)/C=C/c2cc(OC)c(O)c(OC)c2)cc(OC)c1O` [Compound 28e, (2E,2′E)-N,N′-(Decane-1,10-Diyl)Bis(3-(4-Hydroxy-3,5-Dimethoxyphenyl)Acrylamide)], the 50% inhibitory concentration (IC50) in test [1], in test [2], in test [3], in test [4] (setting [8]), in test [6] and in test [7] was > 20 µM each time.
